The supplement of paper PMC13380429

How the values were obtained:
Conditions in all cases: 72 h
Vero E6 [1] = assay: drug sensitivity score (DSS) for viability; higher = more toxic; extreme values may be limits of the assay
Caco-2 [2] = assay: as above
HepG2 [3] = assay: as above
Calu-3 [4] = assay: as above
U2OS [5] = assay: as above
Vero E6 [6] = assay: cell viability relative to DMSO; higher = less toxic
Caco-2 [7] = assay: as above
HepG2 [8] = assay: as above
Calu-3 [9] = assay: as above
U2OS [10] = assay: as above
Vero E6 [11] = assay: relative viability EC50 (midpoint between 100% and the lowest measured viability); higher = less toxic
Caco-2 [12] = assay: as above
HepG2 [13] = assay: as above
Calu-3 [14] = assay: as above
U2OS [15] = assay: as above

| Structure (SMILES) | drug sensitivity score (Vero E6 [1]) | drug sensitivity score (Caco-2 [2]) | drug sensitivity score (HepG2 [3]) | drug sensitivity score (Calu-3 [4]) | drug sensitivity score (U2OS [5]) | cell viability (Vero E6 [6]; 1 nM) [%] | cell viability (Vero E6 [6]; 10 nM) [%] | cell viability (Vero E6 [6]; 100 nM) [%] | cell viability (Vero E6 [6]; 1000 nM) [%] | cell viability (Vero E6 [6]; 10000 nM) [%] | cell viability (Caco-2 [7]; 1 nM) [%] | cell viability (Caco-2 [7]; 10 nM) [%] | cell viability (Caco-2 [7]; 100 nM) [%] | cell viability (Caco-2 [7]; 1000 nM) [%] | cell viability (Caco-2 [7]; 10000 nM) [%] | cell viability (HepG2 [8]; 1 nM) [%] | cell viability (HepG2 [8]; 10 nM) [%] | cell viability (HepG2 [8]; 100 nM) [%] | cell viability (HepG2 [8]; 1000 nM) [%] | cell viability (HepG2 [8]; 10000 nM) [%] | cell viability (Calu-3 [9]; 1 nM) [%] | cell viability (Calu-3 [9]; 10 nM) [%] | cell viability (Calu-3 [9]; 100 nM) [%] | cell viability (Calu-3 [9]; 1000 nM) [%] | cell viability (Calu-3 [9]; 10000 nM) [%] | cell viability (U2OS [10]; 1 nM) [%] | cell viability (U2OS [10]; 10 nM) [%] | cell viability (U2OS [10]; 100 nM) [%] | cell viability (U2OS [10]; 1000 nM) [%] | cell viability (U2OS [10]; 10000 nM) [%] | relative viability EC50 (Vero E6 [11]) [µM] | relative viability EC50 (Caco-2 [12]) [µM] | relative viability EC50 (HepG2 [13]) [µM] | relative viability EC50 (Calu-3 [14]) [µM] | relative viability EC50 (U2OS [15]) [µM] |
| --- | --- | --- | --- | --- | --- | --- | --- | --- | --- | --- | --- | --- | --- | --- | --- | --- | --- | --- | --- | --- | --- | --- | --- | --- | --- | --- | --- | --- | --- | --- | --- | --- | --- | --- | --- |
| NCCc1c[nH]cn1 [histamine] | 0 | 0 | 0 | 0 | 0 | 99.4 | 98.2 | 93.5 | 97.5 | 104 | 90.8 | 105 | 101 | 110 | 104 | 100 | 102 | 103 | 100 | 97.5 | 99.4 | 100 | 101 | 95.7 | 109 | 94.9 | 99.7 | 97.5 | 103 | 102 | > 10 | > 10 | > 10 | > 10 | > 10 |
| CN1CCN(C(=O)C2C(C(=O)O)[C@H]3CC[C@@H]2O3)CC1 (stereo not given in full) [LB-100] | 0 | 5.9 | 0 | 0.5 | 0 | 98.3 | 101 | 93.1 | 99 | 106 | 103 | 85.7 | 99.8 | 84.7 | 36.5 | 98.6 | 97.3 | 109 | 96.6 | 102 | 95.6 | 91.5 | 106 | 92.8 | 86.7 | 103 | 92.9 | 99.4 | 96.2 | 95.6 | > 10 | 1.58 | > 10 | > 10 | > 10 |
| CCOc1cccc(NC(=O)c2ccc(N3CCCC3)c(C(F)(F)F)c2)c1 [EPPTB] | 0 | 1.6 | 0 | 0.2 | 0 | 101 | 102 | 97.3 | 95.5 | 101 | 106 | 101 | 89 | 92.7 | 86.4 | 90.9 | 96.2 | 96.4 | 91.5 | 97.5 | 98.9 | 99.5 | 98.3 | 102 | 83.9 | 101 | 99.2 | 97.4 | 99.1 | 90.9 | > 10 | > 10 | > 10 | > 10 | > 10 |
| CCCN(CCC)C(=O)Cc1c(-c2ccc(Cl)cc2)nc2ccc(Cl)cn12 [alpidem] | 0 | 0 | 0 | 0 | 0 | 102 | 99.6 | 104 | 97.4 | 112 | 91.5 | 103 | 102 | 104 | 100 | 92.5 | 94.6 | 96.6 | 102 | 95.1 | 95.7 | 96.4 | 96.2 | 98.9 | 107 | 92.6 | 97.4 | 95.9 | 104 | 112 | > 10 | > 10 | > 10 | > 10 | > 10 |
